Laboratory results as given in patent US3976695A, “Halogen substituted α-(aminoalkyl)-3,4-dihydroxybenzyl alcohols” (SmithKline Corporation, priority 1970, dated 1976).
≈ marks a conversion by molar mass, not a printed value.

How the values were obtained:
[1] = system: right atria of the guinea pig; experiment: rate of spontaneously beating guinea pig right atria, β-stimulant effect on cardiac muscle; conditions: Cavia porcellus, in vitro, read-out: ED25, increasing the rate of contraction of guinea pig right atria
Source text: (§1) Two in vitro test systems used for determining selective β-stimulant activity are: (1) effect on spontaneous tone of guinea pig tracheal chain preparations as a measure of β-stimulant (direct relaxant) effect on airway smooth muscle, and (2) effect on rate of spontaneously beating right atria of the guinea pig as a measure if β-stimulant effect on cardiac muscle.

[2] = system: guinea pig tracheal chain preparations; experiment: relaxation of spontaneous tone of guinea pig tracheal chain (ring) preparation, β-stimulant effect on airway smooth muscle; conditions: for absolute separation ratio: atrial ED25 versus tracheal ED50, in vitro guinea pig preparations
Source text: as §1

Q: Which EC25 [1] does the source give for `CC(C)NCC(O)c1ccc(O)c(O)c1Cl` (stereo not drawn) [2-chloro-3,4-dihydroxy-α-(isopropylaminomethyl)-benzyl alcohol] here?
A: Its EC25 is 1.6 ng/mL (≈ 6.51 nM).

Q: What about the EC50 ([2]; Cavia porcellus, in vitro, guinea pig tracheal ring preparation, read-out: ED50, relaxes the spontaneous tone of guinea pig tracheal ring preparation) of the same compound?
A: Its EC50 is 0.23 ng/mL (≈ 0.936 nM).

Q: And the absolute separation ratio [2]?
A: The absolute separation ratio was 7.

Q: What about the “improvement of absolute separation ratio compared to d, 1-isoproterenol” value ([2]; versus d, 1-isoproterenol in similar in vitro preparations) of the same compound?
A: The value was 14 fold.

Q: Which absolute separation ratio [2] does the source give for `CC(C)NCC(O)c1ccc(O)c(O)c1` (centres unmarked) [d, 1-isoproterenol, reference compound] here?
A: Its absolute separation ratio is 0.5.
